Patent US20220380347A1, “INHIBITORS OF CYSTEINE PROTEASES AND METHODS OF USE THEREOF” (Pardes Biosciences, Inc., priority 2020, published 2022)

Experiments:
HCov OC43 = test: HCoV OC43 cytopathic effect (CPE) assay, CellTiter Glo; assay type: cell-based, human coronavirus (HCov) OC43; settings: Betacoronavirus 1, OC43, read-out: OC43 IC50 (uM) MEDIAN, median
229E Mpro = 229E Mpro (Human coronavirus 229E, UniProt P0C6X1); test: 229E Mpro enzymatic assay (standard methods, SARS-CoV2 Mpro assay given as exemplary); assay type: biochemical, human coronavirus (HCov) 229E; settings: 229E Mpro EC50
In short: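 Run by standard methods, with the SARS-CoV-2 Mpro protocol given as the model: E. coli-expressed C-His6 protease at 25 nM and substrate at 25 μM (Km 13.5 μM). Buffer pH 7.3 with 5 mM TCEP and 0.1% BSA; % inhibition versus controls fitted to variable-slope log(inhibitor)-response for IC50.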

[1] = biological target: COVID-19 (nCoV-2019, SARS-CoV2) Mpro (Severe acute respiratory syndrome coronavirus 2, UniProt P0DTD1); test: COVID-19 (nCoV-2019, SARS-CoV2) Mpro enzymatic assay; assay type: biochemical; settings: 25 nM Mpro, 25 μM substrate; read-out: COVID-19 Mpro IC50

229E Mpro, sequence (P0C6X1 2966-3267): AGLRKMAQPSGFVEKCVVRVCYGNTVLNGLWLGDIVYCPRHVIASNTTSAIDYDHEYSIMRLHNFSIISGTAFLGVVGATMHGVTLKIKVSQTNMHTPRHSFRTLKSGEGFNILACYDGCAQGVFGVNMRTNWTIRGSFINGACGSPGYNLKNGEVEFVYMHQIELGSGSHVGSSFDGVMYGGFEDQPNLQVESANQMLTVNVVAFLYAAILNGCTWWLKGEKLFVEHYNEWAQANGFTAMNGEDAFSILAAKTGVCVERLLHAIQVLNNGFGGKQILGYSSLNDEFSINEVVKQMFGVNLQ

| Compound | IC50 (HCov OC43) | EC50 (229E Mpro) | IC50 [1] |
| --- | --- | --- | --- |
| CN1CC(C(=O)N(c2ccc(S(F)(F)(F)(F)F)cc2)C(C(=O)NC2CCC(F)(F)CC2)c2cncc(F)c2)N(C#N)CC1=O (stereo not drawn) [Compound 1161, 1-cyano-N-[2-[(4,4-difluorocyclohexyl)amino]-1-(5-fluoro-3-pyridyl)-2-oxo-ethyl]-4-methyl-5-oxo-N-[4-(pentafluoro-λ^6-sulfanyl)phenyl]piperazine-2-carboxamide] | < 2 µM | < 2000 nM | < 2000 nM |
| CO[C@@H]1C[C@H](C(=O)N(c2ccc(S(F)(F)(F)(F)F)cc2)C(C(=O)N2CCC3(COC3)C2)c2cccnc2)N(C#N)C1 (stereo partly drawn) [Compound 1174, (2R,4R)-1-cyano-4-methoxy-N-[2-(2-oxa-7-azaspiro[3.4]octan-7-yl)-2-oxo-1-(3-pyridyl)ethyl]-N-[4-(pentafluoro-λ^6-sulfanyl)phenyl]pyrrolidine-2-carboxamide] | < 2 µM | < 2000 nM | 2000 to 10000 nM |
| CO[C@@H]1C[C@H](C(=O)N(c2ccc(S(F)(F)(F)(F)F)cc2)C(C(=O)NCC(=O)N2CCCC2)c2cccnc2)N(C#N)C1 (stereo partly drawn) [Compound 1182, (2R,4R)-1-cyano-4-methoxy-N-[2-oxo-2-[(2-oxo-2-pyrrolidin-1-yl-ethyl)amino]-1-(3-pyridyl)ethyl]-N-[4-(pentafluoro-λ6-sulfanyl)phenyl]pyrrolidine-2-carboxamide] | < 2 µM | < 2000 nM | < 2000 nM |
| CO[C@@H]1C[C@H](C(=O)N(c2ccc(S(F)(F)(F)(F)F)cc2)C(C(=O)N2CCN(C)C(=O)C2)c2cccnc2)N(C#N)C1 (stereo partly drawn) [Compound 1188] | < 2 µM | < 2000 nM | 2000 to 10000 nM |
| CO[C@@H]1C[C@H](C(=O)N(c2ccc(S(F)(F)(F)(F)F)cc2)C(C(=O)NC2CCC(F)(F)CC2)c2cnccc2C#N)N(C#N)C1 (stereo partly drawn) [Compound 1200, (2R,4R)-1-cyano-N-[l-(4-cyano-3-pyridyl)-2-[(4,4-difluorocyclohexyl)amino]-2-oxo-ethyl]-4-methoxy-N-[4-(pentafluoro-λ6-sulfanyl)phenyl]pyrrolidine-2-carboxamide] | < 2 µM | < 2000 nM | < 2000 nM |
| CN(C(=O)C(c1cccnc1)N(C(=O)[C@H]1CCCN1C#N)c1ccc(C(C)(C)C)cc1)C1CCCCC1 (stereo partly drawn) [Compound 1228, (2R)—N-(4-(tert-butyl)phenyl)-1-cyano-N-(2-(cyclohexyl(methyl)amino)-2-oxo-1-(pyridin-3-yl)ethyl)pyrrolidine-2-carboxamide] | 10 to 30 µM | < 2000 nM | 2000 to 10000 nM |
| CO[C@@H]1C[C@H](C(=O)N(c2ccc(S(F)(F)(F)(F)F)cc2)C(C(=O)N(CCO)C2CCC(F)(F)CC2)c2cccnc2)N(C(=O)OCc2ccccc2)C1 (stereo partly drawn) [Compound 1244, Benzyl (2R,4R)-2-[[2-[(4,4-difluorocyclohexyl)-(2-hydroxyethyl)amino]-2-oxo-1-(3-pyridyl)ethyl]-[4-(pentafluoro-λ^6-sulfanyl)phenyl]carbamoyl]-4-methoxy-pyrrolidine-1-carboxylate] | > 30 µM | > 30000 nM | > 30000 nM |
| N#CN1CC[C@H]2C[C@]21C(=O)N(c1ccc(S(F)(F)(F)(F)F)cc1)C(C(=O)NC1CCC(F)(F)CC1)c1cncc(F)c1 (stereo partly drawn) [Compound 1261, (1R,5S)-2-cyano-N-[2-[(4,4-difluorocyclohexyl)amino]-1-(5-fluoro-3-pyridyl)-2-oxo-ethyl]-N-[4-(pentafluoro-λ^6-sulfanyl)phenyl]-2-azabicyclo[3.1.0]hexane-1-carboxamide] | > 30 µM | 2000 to 10000 nM | > 30000 nM |
| N#CN1CC[C@H]2C[C@]21C(=O)N(c1ccc(S(F)(F)(F)(F)F)cc1)C(C(=O)NC1CCC(F)(F)CC1)c1cnccc1C(F)(F)F (stereo partly drawn) [Compound 1263, (1R,5S)-2-cyano-N-[2-[(4,4-difluorocyclohexyl)amino]-2-oxo-1-[4-(trifluoromethyl)-3-pyridyl]ethyl]-N-[4-(pentafluoro-λ^6-sulfanyl)phenyl]-2-azabicyclo[3.1.0]hexane-1-carboxamide] | > 30 µM | 10000 to 30000 nM | > 30000 nM |
